Laboratory results published in patent US9320772B2, “Herbal composition for treating anxiety related conditions” (OPMOP LTD., priority 2010, dated 2016).
Entries after “also recorded” stand apart in the source; their conditions may differ.

Tests used:
C57BL/6 mice = experiment: Open Field Test in mice after chronic stress (MSP); format: in vivo
Experimental: C57BL/6 male and female infant mice were subjected to chronic stress (MSP) by separation from the dam for 6 hours per day from day 1 to day 14. Anxiety behavior was tested after different anxiolytic treatments. The mice received a daily i.p. injection from day 28 of age for two weeks, of one of the following drugs: Citalopram (10 mg/kg), or the adaptogenic composition of the invention comprising Hawthorn fruit, wheat grain and Lilly Bulb (10 mg/kg). The anxiety behavior was tested in the Open Field Test.

BALB mice = experiment: Novel open field test after acute stress (Yohimibine injection); format: in vivo; conditions: 15 mg/kg/day i.p., three weeks of treatment, after Yohimibine i.p. 1.25 mg/kg, p<0.05 adaptogenic mixture, p<0.0.1 escitalopram
Experimental: FIG. 2A: Effect of treatment in the novel open field Test following one week of treatment. FIG. 2B: Effect of treatment in the novel open field Test following two weeks of treatment. […] Mice were treated through i.p. injection with the adaptogenic mixture (15 mg/kg/day), escitalopram (15 mg/kg/day) or vehicle. The acute stress was obtained with Yohimibine i.p injection, a drug known to activate a stress-reaction (Vasa et al., 2009). […] The Novel Open Field is another well-established test of anxiety-related behavior in rodents. The Open Field area generally consists of an empty and bright square arena, surrounded by walls to prevent the rodent from escaping. The rodent is usually placed in the center of the arena and its behavior recorded over a chosen period. The Novel Open Field task approaches the conflict between the innate fear that rodents have of the central area of a novel or brightly lit open field versus their desire to explore new environments. When anxious, the natural tendency of rodents is to prefer staying close to the walls. In this context, anxiety-related behavior is measured by the degree to which the rodent avoids the center of the arena.

ICR mice = experiment: Elevated plus maze after maternal separation and unpredictable chronic mild stress, treatment after stress; format: in vivo; conditions: stressed ICR mice, 15 mg/kg i.p., 21 days, p<0.05
Experimental: On the day of parturition, PND 0 (postnatal day), litters were randomly assigned to undergo MS or to be standard facility reared (SFR) controls. SFR animals were left undisturbed during the entire stress manipulation (both maternal separation and unpredictable chronic mild stress manipulation), except for routine cage maintenance performed once a week. MS procedure was carried out once per day from PND 1-14. The MS procedure was performed by removing the pups from the home cage and placing them together in a separate clean cage placed on a heating pad (30-33° C.) in order to keep the pups in a temperature close to the dam's natural body temperature. 6 hours later, pups were returned to their home cage. […] Elevated plus-maze: Each mouse was placed in the center of the elevated plus maze and his behavior was recorded for the duration of 5 minutes. […] Subsequent to the stress manipulations, anxiety-like behavior was assessed via the elevated plus maze in order to assess the effect of the stress manipulations. […] Following three weeks of treatment with the relevant drug or vehicle, anxiety-like behavior was assessed via the elevated plus maze. 48 hours thereafter and while mice were still receiving treatment, blood samples were collected following acute stress and Corticosterone levels were measured via radio immunoassay (RIA) assay. […]

Corticosterone [1] = experiment: Corticosterone levels following acute restraint stress (RIA), treatment after chronic stress; format: in vivo; conditions: stressed ICR mice, 15 mg/kg i.p., 3 weeks, p<0.05 adaptogenic mixture, p<0.01 escitalopram
Experimental: In order to estimate the endocrinology reaction to acute stress mice were first placed in restraint. Restraint stress is a well documented stressor that initiates an acute transient increase in plasma ACTH and Corticosterone, usually peaking during the course of a 60 min stress exposure. Therefore, following 60 minutes of subjection to restraint stress, blood samples were collected into EDTA-coated tubes from the facial vein. All blood samples were kept on ice and later centrifuged for 10 min at 10000 rpm at 4°. Plasma was transferred to clean, labeled 1.5 ml microcentrifuge tubes. All plasma samples were stored frozen at −20 C.° until the determination of Corticosterone via RIA. Subsequent to the stress manipulations, anxiety-like behavior was assessed via the elevated plus maze in order to assess the effect of the stress manipulations. […] Following three weeks of treatment with the relevant drug or vehicle, anxiety-like behavior was assessed via the elevated plus maze. 48 hours thereafter and while mice were still receiving treatment, blood samples were collected following acute stress and Corticosterone levels were measured via radio immunoassay (RIA) assay. […] Anxiety-related behaviors were assessed using the elevated-plus maze and indicated anxiogenic effect of the stress manipulation. […]

[2] = tested on: mice subjected to maternal separation and unpredictable mild stress; experiment: Elevated plus maze, treatment during stress; format: in vivo; conditions: 15 mg/kg i.p., 28 days during stress; control (saline) 44 seconds; p<0.05
Experimental: (§1) The day following parturition, postnatal day (PND) 1, the litters underwent a Maternal Separation (MS) procedure that was carried out once a day from PND 1-14. At the age of 21 days, all pups were weaned and sexed. 90 male mice were tagged, weighed, and separated into cages of up to five mice per cage, assigned randomly into four groups of treatment as previously described. Between the age of 28 and 56 days (Adolescence), mice were subjected to an Unpredictable Mild Stress paradigm. In this experiment three different stressors were used—all mice were subjected once a day to one of the following stressors: restrainers; placement in an empty cage with water at the bottom; or inversion of light/dark cycle. To prevent habituation and to provide an unpredictable feature to the stressors, every day different stressor was administered for four hours, at different time points of the day. During the entire stress paradigm, drugs were administrated through i.p. injection of the relevant treatment, for the duration of 28 days. Upon reaching adulthood and following four weeks of treatment, behavior, peripheral hormones and brain monoamines were measured in order to assess the effects of the novel treatment. […]

[3] = tested on: mice subjected to maternal separation and unpredictable mild stress; experiment: Sucrose test, treatment during stress; format: in vivo; conditions: escitalopram group (15 mg/kg as previously described) i.p., 28 days during stress; control (saline) 51 ml; p<0.05
Experimental: The day following parturition, postnatal day (PND) 1, the litters underwent a Maternal Separation (MS) procedure that was carried out once a day from PND 1-14. At the age of 21 days, all pups were weaned and sexed. 90 male mice were tagged, weighed, and separated into cages of up to five mice per cage, assigned randomly into four groups of treatment as previously described. Between the age of 28 and 56 days (Adolescence), mice were subjected to an Unpredictable Mild Stress paradigm. In this experiment three different stressors were used—all mice were subjected once a day to one of the following stressors: restrainers; placement in an empty cage with water at the bottom; or inversion of light/dark cycle. To prevent habituation and to provide an unpredictable feature to the stressors, every day different stressor was administered for four hours, at different time points of the day. During the entire stress paradigm, drugs were administrated through i.p. injection of the relevant treatment, for the duration of 28 days. Upon reaching adulthood and following four weeks of treatment, behavior, peripheral hormones and brain monoamines were measured in order to assess the effects of the novel treatment. […] After the 12 hours, the amount of ordinary water, sucrose water and food eaten by the mouse, was calculated. […]

Corticosterone [4] = experiment: Corticosterone levels following acute restraint stress (RIA), treatment during stress; format: in vivo, mice; conditions: escitalopram group (15 mg/kg as previously described), 28 days during stress; control 80.9 ng/ml; p<0.05
Experimental: as §1, with “treatment. In order to estimate the endocrinological reaction to acute stress, mice were first placed in restrainers.” for “treatment.”

[5] = tested on: Brain-derived neurotrophic factor (BDNF); experiment: Hippocampal BDNF levels by EIA, treatment during stress; format: in vivo, mice; conditions: escitalopram group (15 mg/kg as previously described), 28 days during stress; control (saline) 12 pc/μg; p<0.05
Experimental: The day following parturition, postnatal day (PND) 1, the litters underwent a Maternal Separation (MS) procedure that was carried out once a day from PND 1-14. At the age of 21 days, all pups were weaned and sexed. 90 male mice were tagged, weighed, and separated into cages of up to five mice per cage, assigned randomly into four groups of treatment as previously described. Between the age of 28 and 56 days (Adolescence), mice were subjected to an Unpredictable Mild Stress paradigm. In this experiment three different stressors were used—all mice were subjected once a day to one of the following stressors: restrainers; placement in an empty cage with water at the bottom; or inversion of light/dark cycle. To prevent habituation and to provide an unpredictable feature to the stressors, every day different stressor was administered for four hours, at different time points of the day. During the entire stress paradigm, drugs were administrated through i.p. injection of the relevant treatment, for the duration of 28 days. Upon reaching adulthood and following four weeks of treatment, behavior, peripheral hormones and brain monoamines were measured in order to assess the effects of the novel treatment.
At the end of the experiment, all treated mice were sacrificed. The brains of the mice were placed in a mold on ice. […] Brain-derived neurotrophic factor (BDNF) was measured by EIA. […]

Structure (SMILES)	Time inside the center of the arena, Open Field Test (C57BL/6 mice; MSP (chronically stressed) C57BL/6 mice, 10 mg/kg i.p. daily for two weeks, saline 1.8 seconds, n=16)	Entries to the inside of the arena, Open Field Test (C57BL/6 mice; MSP C57BL/6 mice, 10 mg/kg i.p. daily for two weeks, saline 1.6 times, n=16)	Time inside the center of the arena, Open Field Test (C57BL/6 mice; treated, unstressed mice, 10 mg/kg i.p., saline unstressed 4.5 seconds)	Time spent inside the field of the control group in comparison to the treated group, novel open field (BALB mice)	Time spent in the open arms in comparison to control group, elevated plus maze (ICR mice)	Corticosterone levels following acute restraint stress in comparison to control group (Corticosterone [1])	Time spent in the open arms, Elevated Plus Maze [2]	Sucrose consumption, sucrose test [3]	Corticosterone levels following acute restraint stress (Corticosterone [4])	BDNF levels (hippocampus) [5]
CN(C)CCCC1(c2ccc(F)cc2)OCc2cc(C#N)ccc21 (stereo not shown) [Citalopram]	2.5 s	2.4 times	4.6 s	–	–	–	–	–	–	–
CN(C)CCC[C@@]1(c2ccc(F)cc2)OCc2cc(C#N)ccc21 [escitalopram, Escitalopram]	–	–	–	significantly less pronounced	significantly more time; also recorded: same effect	significantly lower; also recorded: same effect	64 s	55 mL	77.3 ng/mL	16 pc/μg
